The results in this text go back to US20240082275A1, “Pharmaceutical formulations comprising 5-Chloro-N4-[2-(dimethylphosphoryl)phenyl]-N2-{2-methoxy-4-[4-(4-methylpiperazin-1-yl)piperidin-1-yl]phenyl}pyrimidine-2,4-diamine” (Takeda Pharmaceutical Company Limited, priority 2017, published 2024).

The nature of this series: Solid-state properties of brigatinib Form A (hygroscopicity, polymorphic conversion). It is filed as physicochemical.

`COc1cc(N2CCC(N3CCN(C)CC3)CC2)ccc1Nc1ncc(Cl)c(Nc2ccccc2P(C)(C)=O)n1` [Brigatinib Form A, 5-chloro-N4-[2-(dimethylphosphoryl)phenyl]-N2-{2-methoxy-4-[4-(4-methylpiperazin-1-yl)piperidin-1-yl]phenyl}pyrimidine-2,4-diamine]: the hygroscopicity entry is recorded as “non-hygroscopic”. Besides, for the setting “solvent-mediated or solid-solid transitions, elevated temperature, elevated humidity, mechanical pressure or grinding”, the “conversion to other polymorphic forms” value is “does not convert to other polymorphic forms”.
